These results are taken from ChEMBL document CHEMBL1122177, “Mechanism of action of 5-nitro-2'-deoxyuridine” (J Med Chem, 1982).

Format in all cases: functional, cell-based
What all share (conditions): Mus musculus

Assay [1] has as its system L1210. The experiment in a line: Effective concentration for growth inhibition of L1210 cells in culture in the presence of 10 uM of dThd.
Assay [2] concerns L1210. The experiment in a line: Effective concentration for growth inhibition of L1210 cells in culture in the presence of 10 uM of dUrd.
The subject of assay [3] is L1210. Kind of assay: Effective concentration to inhibit growth of L1210 cells in culture.
The test system of assay [4] is S49. Kind of assay: Effective concentration for growth inhibition of S49 cells in culture in the presence of 10 uM of dUrd.
Assay [5] has as its system S49. Kind of assay: Effective concentration to inhibit growth of S49 cells in culture.

What is called EC50 is the concentration at which the effect is half-maximal. As to `O=c1[nH]c(=O)n([C@H]2C[C@H](O)[C@@H](CO)O2)cc1[N+](=O)[O-]`, the EC50 in the assay on L1210 [1] was greater than 3000 nM; in the assay with L1210 [2], 120 nM; with L1210 [3], 33 nM; in the assay on S49 [4], 60 nM; with S49 [5], 30 nM.
